Experimental findings from patent US20110306665A1, “COSMETIC PREPARATION, METHOD FOR PRODUCING SAME, COMPOSITION FOR COSMETIC PREPARATIONS, COSMETIC PREPARATION CONTAINING THE COMPOSITION FOR COSMETIC PREPARATIONS AND METHOD FOR PRODUCING SAME, AND CLEANSER FOR INDUSTRIAL USE” (The Nisshin OilliO Group, Ltd., priority 2009, published 2011) are described below.

Data set [1] is described as follows: Moisturizing properties of cosmetic preparation compositions (massage oil, panel). It is filed as in vivo, human. Details: key: Good: Very soft and moistened touch was felt.; Moderate: Soft and moistened touch was felt.; Poor: No moistened touch was felt. The settings on record: neat cosmetic preparation composition (massage oil); 0.05 g, rubbed twenty times, wiped; seven panelists. As for the experimental part:
In Example 12, the PDO diisostearate obtained from Synthesis Example 1 was used as a cosmetic preparation composition (moisturizing ingredient) for a moisturizing cosmetic preparation (massage oil), and the moisturizing properties and the feeling of use thereof were evaluated.
The insides of the arms of seven panelists were washed with soap and water, and in addition, the washed surfaces were wiped with ethanol and naturally dried. Thereafter, each of the thus washed surfaces was evenly divided into eight equal areas, to which 0.05 g of the respective cosmetic preparation compositions of Example 12, and Comparative Examples 4 to 7 and 4A to 4C, was applied and massage was done by gently rubbing with a finger twenty times. Thereafter, the area was wiped with a dry cloth. On completion of this wiping, the moisturizing properties and the feeling of use of the respective cosmetic preparation compositions were evaluated in accordance with the same criteria as those of the moisturizing gels of Examples 6 to 8 mentioned above.

The nature of data set [2]: Viscosity by stress-controlled rheometer at 20° C. It is filed as physicochemical. As to the method: (§1) Next, the viscosity and the friction coefficient of the cosmetic preparation compositions of Example 12 and Comparative Examples 4 to 7 and 4A to 4C were measured.
The viscosity was measured by using a stress-controlled rheometer (Product No. RheoStress RS1, with a C60/2 Ti sensor, a product of Haake Company) at 20° C.

The nature of data set [3]: Friction coefficient on artificial leather (friction tester). To be noted: 5 μL on artificial leather, pressure of 100 g. The class given is physicochemical. As for the experimental part: as §1
The friction coefficient was measured by such a way that: 5 μL of each cosmetic preparation composition was applied to the surface of an artificial leather (Product Name: Supplale, a product of Idemitsu Technofine Co., Ltd.), and the applied surface was measured for the friction coefficient and the change in the value of the friction coefficient, by using a friction tester (Type: TL201Ts, a product of Trinity-Lab Co., Ltd.) with a pressure of 100 g.

A short description of data set [4]: Oxidative stability by conductometric determination method (CDM, Rancimat). The settings on record: 3 g, 120° C., air flow 8 L/h. It is filed as physicochemical. As for the experimental part: Furthermore, the oxidative stability was compared between the cosmetic preparation compositions of Example 12 and Comparative Example 4. Specifically speaking, these cosmetic preparation compositions were evaluated for the oxidative stability by a conductometric determination method (CDM method). […] A greater increase in the conductivity per unit time means a lower oxidative stability of the cosmetic preparation composition. Conversely, a smaller increase in the conductivity per unit time means a higher oxidative stability of the cosmetic preparation composition. The conductivity was measured by using a rancimat instrument (Type: Rancimat 743, a product of Metrohm-Sibata Ltd.) in a condition where 3 g of the sample was examined under heating at 120° C. with an air flow rate of 8 L/h.

With PDO diisostearate [Example 12], in data set [1], the Moisturizing properties entry was “Good”. Besides, the “Viscosity (mPa · s) (20° C.)” value in data set [2] is given as 80.0 mPa · s. Further, in data set [3], the “Changed value of friction coefficient” value turned out to be 0.0045 and the Friction coefficient came out at 0.140. Also, the “Conductivity (CDM method) after 5 hours” value in data set [4] (after 5 hours) turned out to be 17 μS/cm. Further, the “Conductivity (CDM method) after 10 hours” value in data set [4] (after 10 hours) stood at 45 μS/cm. Also, in data set [4] (after 15 hours), the “Conductivity (CDM method) after 15 hours” value amounted to 83 μS/cm. The “Conductivity (CDM method) after 20 hours” value in data set [4] (after 20 hours) is 127 μS/cm.
